Measured values published in paper PMC6925601 (European journal of medicinal chemistry, 2019).

Columns and labels:
[1] = biological target: T1, human neutrophil elastase (HNE) (Homo sapiens, UniProt P08246); assay: HNE inhibitory assay; assay type: biochemical
T1 sequence (P08246 30-247 limits assumed): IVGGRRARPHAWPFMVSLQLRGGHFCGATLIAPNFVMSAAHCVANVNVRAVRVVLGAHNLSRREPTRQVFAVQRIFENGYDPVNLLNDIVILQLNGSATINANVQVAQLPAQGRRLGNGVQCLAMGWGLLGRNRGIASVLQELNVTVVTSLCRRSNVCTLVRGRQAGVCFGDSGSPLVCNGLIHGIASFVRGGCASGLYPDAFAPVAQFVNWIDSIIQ

MKK7 = biological target: T2, MKK7 (Homo sapiens, UniProt O14733); assay: KINOMEscan kinase binding assay; settings: for Kd (μM) vs MKK7: KINOMEscan, duplicate, maximum concentration 30 μM
T2 sequence (O14733 1-419): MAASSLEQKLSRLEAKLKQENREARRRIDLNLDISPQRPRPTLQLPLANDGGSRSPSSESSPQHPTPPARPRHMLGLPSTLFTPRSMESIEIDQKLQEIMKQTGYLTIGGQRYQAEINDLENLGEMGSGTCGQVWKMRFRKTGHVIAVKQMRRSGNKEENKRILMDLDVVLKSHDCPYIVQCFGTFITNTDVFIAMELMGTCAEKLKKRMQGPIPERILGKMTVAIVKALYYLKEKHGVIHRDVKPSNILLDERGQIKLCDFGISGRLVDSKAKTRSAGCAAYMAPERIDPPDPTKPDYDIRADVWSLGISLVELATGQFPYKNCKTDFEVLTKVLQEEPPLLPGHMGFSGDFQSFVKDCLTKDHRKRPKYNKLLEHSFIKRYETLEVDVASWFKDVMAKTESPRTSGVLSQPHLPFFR

[2] = test system: nine tumor cell lines and primary PBMCs; assay: Cytotoxicity across the panel of nine tumor cell lines and PBMCs; assay type: cell-based, human; settings: 24 h; for IC50: Homo sapiens, PBMC, read-out: cytotoxic activity IC50 for most of the cell lines; for cytotoxicity toward tumor cell lines and PBMCs (in words): up to 50 μM
MKK4 = biological target: T3, MKK4 (Homo sapiens, UniProt P45985); assay: KINOMEscan kinase binding assay; settings: for Kd for MKK4: KINOMEscan, data not shown
T3 sequence (P45985 1-399): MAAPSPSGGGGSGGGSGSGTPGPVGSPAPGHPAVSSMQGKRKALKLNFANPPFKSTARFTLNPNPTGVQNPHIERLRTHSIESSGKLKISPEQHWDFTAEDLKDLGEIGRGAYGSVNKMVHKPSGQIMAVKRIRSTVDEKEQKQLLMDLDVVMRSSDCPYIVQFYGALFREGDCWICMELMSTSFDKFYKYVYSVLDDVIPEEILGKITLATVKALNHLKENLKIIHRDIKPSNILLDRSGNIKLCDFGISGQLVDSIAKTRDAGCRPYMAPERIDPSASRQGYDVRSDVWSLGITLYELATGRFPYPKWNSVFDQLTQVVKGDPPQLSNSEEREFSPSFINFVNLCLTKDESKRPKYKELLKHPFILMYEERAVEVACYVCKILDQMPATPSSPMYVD

[3] = test system: primary peripheral blood mononuclear cells (PBMCs); assay: Cytotoxicity assay; assay type: cell-based; settings: Homo sapiens, PBMC, 24 h, read-out: PBMCs IC50 (μM)
[4] = test system: MCF7 breast adenocarcinoma cells; assay: Anticancer cell cytotoxicity assay; assay type: cell-based; settings: Homo sapiens, MCF7, 24 h, read-out: MCF7 IC50 (μM)
[5] = test system: SW-982 synovial sarcoma cells; assay: Anticancer cell cytotoxicity assay; assay type: cell-based; settings: Homo sapiens, SW982, 24 h, read-out: SW-982 IC50 (μM)
[6] = test system: LS174T colorectal adenocarcinoma cells; assay: Anticancer cell cytotoxicity assay; assay type: cell-based; settings: Homo sapiens, 24 h, read-out: LS174T IC50 (μM)
[7] = test system: A549 lung carcinoma cells; assay: Anticancer cell cytotoxicity assay; assay type: cell-based; settings: Homo sapiens, A549, 24 h, read-out: A549 IC50 (μM)
Cdc25A = biological target: T4, Cdc25A (Homo sapiens, UniProt P30304); assay: CycLex Cdc25A fluorometric phosphatase inhibition assay; assay type: biochemical
T4 sequence (P30304 1-524): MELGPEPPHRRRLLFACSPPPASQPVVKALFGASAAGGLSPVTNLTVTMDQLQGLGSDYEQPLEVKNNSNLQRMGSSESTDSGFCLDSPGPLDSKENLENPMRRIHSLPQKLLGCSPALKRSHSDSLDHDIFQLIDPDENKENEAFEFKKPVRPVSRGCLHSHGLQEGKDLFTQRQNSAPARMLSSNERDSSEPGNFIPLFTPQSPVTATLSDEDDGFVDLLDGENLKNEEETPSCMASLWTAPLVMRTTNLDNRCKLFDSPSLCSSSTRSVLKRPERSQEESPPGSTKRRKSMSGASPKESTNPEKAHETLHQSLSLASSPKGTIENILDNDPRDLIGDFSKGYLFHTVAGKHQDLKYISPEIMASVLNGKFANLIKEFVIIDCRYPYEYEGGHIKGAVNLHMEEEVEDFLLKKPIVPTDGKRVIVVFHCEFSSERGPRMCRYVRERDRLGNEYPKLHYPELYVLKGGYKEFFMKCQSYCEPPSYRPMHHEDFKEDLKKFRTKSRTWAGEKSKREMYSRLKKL

Cdc25B = biological target: T5, Cdc25B (Homo sapiens, UniProt P30305); assay: CycLex Cdc25B fluorometric phosphatase inhibition assay; assay type: biochemical
T5 sequence (P30305 1-580): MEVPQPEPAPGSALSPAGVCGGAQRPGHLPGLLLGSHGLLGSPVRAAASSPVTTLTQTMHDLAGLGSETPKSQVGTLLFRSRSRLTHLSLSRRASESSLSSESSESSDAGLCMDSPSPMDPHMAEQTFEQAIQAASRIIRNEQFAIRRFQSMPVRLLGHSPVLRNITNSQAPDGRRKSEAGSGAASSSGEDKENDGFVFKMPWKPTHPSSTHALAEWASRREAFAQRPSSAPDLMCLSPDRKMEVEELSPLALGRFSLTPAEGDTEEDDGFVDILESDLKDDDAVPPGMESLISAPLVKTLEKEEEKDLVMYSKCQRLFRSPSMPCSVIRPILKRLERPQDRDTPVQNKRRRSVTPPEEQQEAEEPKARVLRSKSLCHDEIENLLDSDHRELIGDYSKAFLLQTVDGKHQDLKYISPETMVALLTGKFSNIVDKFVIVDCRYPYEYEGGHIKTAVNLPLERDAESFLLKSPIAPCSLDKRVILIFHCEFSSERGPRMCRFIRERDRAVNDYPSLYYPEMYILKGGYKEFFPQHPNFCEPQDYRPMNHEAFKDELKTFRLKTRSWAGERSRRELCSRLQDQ

CC(C)=CC[C@@H](O)C1=CC(=O)c2c(O)ccc(O)c2C1=O [Compound 1, Shikonin]
IC50 [1]: > 50 µM | Kd (MKK7): > 30 µM | Kd (μM) vs MKK7 (MKK7): did not bind

CC1=CC(=O)c2c(O)cccc2C1=O [Compound 2, Plumbagin, reference compound]
IC50 [1]: > 50 µM | IC50 [2]: < 10 µM

O=C1C(SCCO)=C(SCCO)C(=O)c2ccccc21 [Compound 4, 2,3-bis-[(2-hydroxyethyl)thio]-1,4-naphthoquinone, reference compound]
Kd for MKK4 (MKK4): No MKK4 binding affinity | IC50 [1]: > 50 µM | Kd (μM) vs MKK7 (MKK7): in the micromolar range | IC50 [2]: < 10 µM

CC1=C(SCCO)C(=O)c2ccccc2C1=O [Compound 5, reference compound]
IC50 [1]: > 50 µM | Kd (MKK7): > 30 µM

O=C(O)CSC1=CC(=O)c2ccccc2C1=O [Compound 6]
Kd (MKK4): 19.5 ± 0.7 µM | IC50 [1]: > 50 µM | cytotoxicity toward tumor cell lines and PBMCs (in words) [2]: weakly active or inactive

O=C(O)CCSC1=CC(=O)c2ccccc2C1=O [Compound 7, 3-[(1,4-dioxonaphthalen-2-yl)sulfanyl]propanoic acid]
Kd for MKK4 (MKK4): No MKK4 binding affinity | IC50 [1]: > 50 µM | fold more active than 6 (MKK7) (MKK7; compared with compound 6): 6 fold

CC(SC1=CC(=O)c2ccccc2C1=O)C(=O)O (stereo not shown) [Compound 8]
Kd for MKK4 (MKK4): No MKK4 binding affinity

CC1=C(SCCC(=O)O)C(=O)c2ccccc2C1=O [Compound 9, vitamin ks-II, reference compound]
IC50 [1]: > 50 µM

CCSC1=C(C)C(=O)c2ccccc2C1=O [Compound 10]
IC50 [1]: > 50 µM | IC50 [2]: < 10 µM

COCCSC1=C(C)C(=O)c2ccccc2C1=O [Compound 11]
IC50 [1]: > 50 µM | IC50 [2]: < 10 µM

CC1=C(SC(C)C)C(=O)c2ccccc2C1=O [Compound 12]
IC50 [1]: > 50 µM | IC50 [2]: < 10 µM

CSC1=C(SC)C(=O)c2ccccc2C1=O [Compound 13]
IC50 [1]: > 50 µM | IC50 [2]: < 10 µM

COc1ccc(OC)c2c1C(=O)C=C(SCCC(=O)O)C2=O [Compound 14, GN25]
IC50 [3]: > 50 µM | IC50 [4]: > 50 µM | IC50 [5]: > 50 µM | IC50 [1]: > 50 µM | Kd (MKK7): > 30 µM | Kd (μM) vs MKK7 (MKK7): inactive | IC50 [6]: > 50 µM | cytotoxicity toward tumor cell lines and PBMCs (in words) [2]: weakly toxic or nontoxic | IC50 [7]: > 50 µM

COC1=C(OC)C(=O)c2ccccc2C1=O [Compound 15]
IC50 [1]: > 50 µM | Kd (μM) vs MKK7 (MKK7): almost complete loss of binding affinity

COC1=CC(=O)c2ccccc2C1=O [Compound 16]
IC50 [1]: > 50 µM

COC1=C(C)C(=O)c2ccccc2C1=O [Compound 17]
IC50 [3]: > 50 µM | IC50 [5]: > 50 µM | IC50 [1]: > 50 µM | IC50 [6]: > 50 µM | IC50 [7]: > 50 µM

CC1=CC(=O)c2ccccc2C1=O [Compound 18, menadione, reference compound]
IC50 [1]: > 50 µM | Kd (MKK7): > 30 µM | Kd (μM) vs MKK7 (MKK7): did not bind | IC50 [2]: < 10 µM

O=C1C(O)=C(CN(CCCl)CCCl)C(=O)c2ccccc21 [Compound 19]
IC50 [1]: > 50 µM

CC(C)(C)[C@H]1CC[C@H](CC2=C(O)C(=O)c3ccccc3C2=O)CC1 [Compound 21, buparvaquone, reference compound]
IC50 (Cdc25A): > 50 µM | IC50 [1]: > 50 µM | Kd (MKK7): > 30 µM | Kd (μM) vs MKK7 (MKK7): did not bind

O=C(O)CNC1=C(Cl)C(=O)c2ccccc2C1=O [Compound 22a, (3-Chloro-1,4-dioxo-1,4-dihydro-naphthalen-2-ylamino)-acetic acid]
IC50 [1]: > 50 µM | IC50 (Cdc25B): > 50 µM

O=C(O)CCCNC1=C(Cl)C(=O)c2ccccc2C1=O [Compound 22c, 4-(3-Chloro-1,4-dioxo-1,4-dihydro-naphthalen-2-ylamino)-butyric acid]
IC50 [1]: > 50 µM

O=C(O)c1cccc(NC2=C(Cl)C(=O)c3ccccc3C2=O)c1 [Compound 22e, 3-(3-Chloro-1,4-dioxo-1,4-dihydro-naphthalen-2-ylamino)-benzoic acid]
Kd for MKK4 (MKK4): No MKK4 binding affinity | IC50 [1]: > 50 µM | IC50 [2]: < 10 µM

O=C(O)c1ccc(NC2=C(Cl)C(=O)c3ccccc3C2=O)cc1 [Compound 22f, 4-(3-Chloro-1,4-dioxo-1,4-dihydro-naphthalen-2-ylamino)-benzoic acid]
IC50 [1]: > 50 µM | IC50 [2]: < 10 µM

COC(=O)c1ccc(NC2=C(Cl)C(=O)c3ccccc3C2=O)cc1 [Compound 22g, 4-(3-Chloro-1,4-dioxo-1,4-dihydro-naphthalen-2-ylamino)-benzoic acid methyl ester]
IC50 [1]: > 50 µM

O=C1C(Cl)=C(NCCO)C(=O)c2ccccc21 [Compound 23a, 2-Chloro-3-(2-hydroxy-ethylamino)-1,4-naphthoquinone]
IC50 [1]: > 50 µM | IC50 (Cdc25B): > 50 µM

O=C1C(Cl)=C(NCCCO)C(=O)c2ccccc21 [Compound 23b, 2-Chloro-3-(3-hydroxy-propylamino)-1,4-naphthoquinone]
IC50 [1]: > 50 µM | IC50 (Cdc25B): > 50 µM

O=C1C(Cl)=C(NCCCN2CCOCC2)C(=O)c2ccccc21 [Compound 24, 2-Chloro-3-(3-morpholin-4-yl-propylamino)-1,4-naphthoquinone]
IC50 (Cdc25A): > 50 µM | Cdc25A IC50 (μM) (Cdc25A; recombinant Cdc25A, OMFP substrate, 25 °C): inactive | IC50 [1]: > 50 µM | IC50 (Cdc25B): > 50 µM | Cdc25B IC50 (μM) (Cdc25B; recombinant Cdc25B, OMFP substrate, 25 °C): inactive

COC(=O)c1ccc(NC2=C(N3CCCCC3)C(=O)c3ccccc3C2=O)cc1 [Compound 25a, 4-(1,4-Dioxo-3-piperidin-1-yl-1,4-dihydro-naphthalen-2-ylamino)-benzoic acid methyl ester]
IC50 [1]: > 50 µM | Kd (MKK7): > 30 µM

COC(=O)c1ccc(NC2=C(OC)C(=O)c3ccccc3C2=O)cc1 [Compound 25b, 4-(3-Methoxy-1,4-dioxo-1,4-dihydro-naphthalen-2-ylamino)-benzoic acid methyl ester]
IC50 (Cdc25A): > 50 µM | IC50 [1]: > 50 µM | IC50 (Cdc25B): > 50 µM
